# The source made the active and inactive calls. The calls are words filed in the database; no cut-off is given here.
# Tests used:
# [1] = test system: Pseudomonas aeruginosa; assay: Antibacterial activity against Pseudomonas aeruginosa ATCC 10145 incubated for 24 hrs by microdilution method; assay type: functional, organism-based
# [2] = test system: Nakaseomyces glabratus; assay: Antifungal activity against Candida glabrata ATCC 2001 incubated for 24 hrs by microdilution method; assay type: functional, organism-based
# [3] = test system: Escherichia coli; assay: Antibacterial activity against Escherichia coli ATCC 11175 incubated for 24 hrs by microdilution method; assay type: functional, organism-based
# [4] = test system: Candida albicans; assay: Antifungal activity against Candida albicans ATCC 10231 incubated for 24 hrs by microdilution method; assay type: functional, organism-based
# [5] = test system: Staphylococcus aureus; assay: Antibacterial activity against Staphylococcus aureus ATCC 43300 incubated for 24 hrs by microdilution method; assay type: functional
# [6] = test system: Staphylococcus aureus; assay: Antibacterial activity against methicillin-resistant Staphylococcus aureus ATCC 43300 incubated for 24 hrs by microdilution method; assay type: functional
# [7] = Drug metabolism in Staphylococcus aureus ATCC 6538 assessed as reduction in formaldehyde content incubated for 1 hr by LC-MS analysis; assay type: ADME
# [8] = test system: Staphylococcus aureus; assay: Bacteriostatic activity against methicillin-resistant Staphylococcus aureus ATCC 43300 assessed as reduction in bacterial colonies at 2 to 8 times MIC measured after 24 hrs by time kill assay; assay type: functional, organism-based
# [9] = test system: Staphylococcus aureus; assay: Induction of drug resistance in Staphylococcus aureus ATCC 6538 assessed as increase in MIC measured after 20 passages incubated for 24 hrs; assay type: functional, organism-based
# [10] = test system: Bacillus subtilis; assay: Antibacterial activity against Bacillus subtilis ATCC 6051 incubated for 24 hrs by microdilution method; assay type: functional
# [11] = test system: Staphylococcus aureus; assay: Antibacterial activity against Staphylococcus aureus ATCC 6538 incubated for 24 hrs by microdilution method; assay type: functional
# [12] = Drug metabolism in Staphylococcus aureus ATCC 6538 assessed as reduction in 5-((4-hydroxy-2-oxo-2H-pyran-6-yl)methyl)-2-methyl-4H-chromen-4-one content incubated for 1 hr by LC-MS analysis; assay type: ADME
# [13] = test system: Staphylococcus aureus; assay: Bactericidal activity against Staphylococcus aureus ATCC 6538 incubated for 24 hrs by microdilution method; assay type: functional
# [14] = test system: Bacillus subtilis; assay: Bactericidal activity against Bacillus subtilis ATCC 6051 incubated for 24 hrs by microdilution method; assay type: functional
# [15] = test system: Staphylococcus aureus; assay: Bactericidal activity against Staphylococcus aureus ATCC 43300 incubated for 24 hrs by microdilution method; assay type: functional
# [16] = test system: Streptomyces sp.; assay: Protection against formaldehyde-induced toxicity in Streptomyces sp. OUCMDZ-4982 cultured in Gauze medium assessed as inhibition of bacterial growth incubated for 1 hr; assay type: functional, organism-based
# [17] = test system: Streptomyces sp.; assay: Protection against formaldehyde-induced toxicity in Streptomyces sp. OUCMDZ-4982 cultured in Gauze medium assessed as decrease in bacterial growth incubated for 1 hr; assay type: functional, organism-based
# [18] = Drug metabolism in Staphylococcus aureus ATCC 6538 assessed as 3,3-methylenebis(4-hydroxy-6-methyl-2H-pyran-2-one) formation in presence of 2266E medium by HPLC analysis; assay type: ADME
# [19] = test system: Streptomyces sp.; assay: Protection against formaldehyde-induced toxicity in Streptomyces sp. OUCMDZ-4982 cultured in A1 medium assessed as decrease in bacterial growth incubated for 1 hr; assay type: functional, organism-based
# [20] = Chemical reactivity of compound in acetaldehyde assessed as (1S,2R,18R,19R,22S,25R,28R,40S)-48-[(2S,3R,4S,5S,6R)-3-[(2S,4S,5S,6S)-4-amino-5-hydroxy-4,6-dimethyl-tetrahydropyran-2-yl]oxy-4,5-dihydroxy-6-(hydroxymethyl)tetrahydropyran-2-yl]oxy-22-(2-amino-2-oxo-ethyl)-5,15-dichloro-2,18,32,35,37-pentahydroxy-19-[(2R,4R)-4-isobutyl-2,3-dimethyl-5-oxo-imidazolidin-1-yl]-20,23,26,42,44-pentaoxo-7,13-di …; assay type: physicochemical
# [21] = Chemical reactivity of compound in formaldehyde assessed as (1S,2R,18R,19R,22S,25R,28R,40S)-48-[(2S,3R,4S,5S,6R)-3-[(2S,4S,5S,6S)-4-amino-5-hydroxy-4,6-dimethyl-tetrahydropyran-2-yl]oxy-4,5-dihydroxy-6-(hydroxymethyl)tetrahydropyran-2-yl]oxy-22-(2-amino-2-oxo-ethyl)-5,15-dichloro-2,18,32,35,37-pentahydroxy-19-[(4R)-4-isobutyl-3-methyl-5-oxo-imidazolidin-1-yl]-20,23,26,42,44-pentaoxo-7,13-dioxa-21, …; assay type: physicochemical
# [22] = test system: Staphylococcus aureus; assay: microbe, parasite or virus in culture; conditions: ATCC 6538
# Description: Antibacterial activity against Staphylococcus aureus ATCC 6538 in presence of 4 mg/L HCHO by microdilution method
# [23] = test system: Staphylococcus aureus; assay: microbe, parasite or virus in culture; conditions: ATCC 6538; remark: listed apart in the source
# Description: Antibacterial activity against Staphylococcus aureus ATCC 6538 in presence of 8 mg/L HCHO by microdilution method
# [24] = Chemical reactivity of compound in formaldehyde assessed as (4R,4aR,5aS,12aR)-9-(3-(tert-butyl)-5-oxoimidazolidin-1-yl)-4,7-bis(dimethylamino)-3,10,12,12a-tetrahydroxy-1,11-dioxo-1,4,4a,5,5a,6,11,12a-octahydrotetracene-2-carboxamide formation; assay type: physicochemical
# [25] = test system: Staphylococcus aureus; assay: microbe, parasite or virus in culture; conditions: ATCC 43300
# Description: Antibacterial activity against methicillin-resistant Staphylococcus aureus ATCC 43300 in presence of 8 mg/L HCHO by microdilution method
# [26] = Drug metabolism in Staphylococcus aureus ATCC 6538 assessed as (1S,2R,18R,19R,22S,25R,28R,40S)-48-[(2S,3R,4S,5S,6R)-3-[(2S,4S,5S,6S)-4-amino-5-hydroxy-4,6-dimethyl-tetrahydropyran-2-yl]oxy-4,5-dihydroxy-6-(hydroxymethyl)tetrahydropyran-2-yl]oxy-22-(2-amino-2-oxo-ethyl)-5,15-dichloro-2,18,32,35,37-pentahydroxy-19-[(4R)-4-isobutyl-3-methyl-5-oxo-imidazolidin-1-yl]-20,23,26,42,44-pentaoxo-7,13-dioxa- …; assay type: ADME
# [27] = test system: Staphylococcus aureus; assay: microbe, parasite or virus in culture; conditions: ATCC 43300; remark: listed apart in the source
# Description: Antibacterial activity against methicillin-resistant Staphylococcus aureus ATCC 43300 in presence of 4 mg/L HCHO by microdilution method
smiles,measurement,setting,value
Cc1cc(=O)c2c(Cc3cc(O)c(Cc4c(O)cc(Cc5cc(=O)c6c(C)cc(O)cc6o5)oc4=O)c(=O)o3)cccc2o1,Activity,[1],inactive
same,Activity,[2],inactive
same,Activity,[3],inactive
same,Activity,[4],inactive
CCOC(=O)C[C@@H]1Oc2cc(C)oc(=O)c2[C@@H]1c1c(O)cc(C)oc1=O,Activity,[1],inactive
same,Activity,[2],inactive
same,Activity,[3],inactive
same,Activity,[4],inactive
"CN(C)c1cc(N2CN(C(C)(C)C)CC2=O)c(O)c2c1C[C@H]1C[C@H]3[C@H](N(C)C)C(O)=C(C(N)=O)C(=O)[C@@]3(O)C(O)=C1C2=O (single isomer, unassigned)",MIC,[5],1 µg/mL
same,MIC,[6],32 µg/mL
Cc1cc(=O)c2c(Cc3cc(O)c(Cc4c(O)cc(Cc5cccc6oc(C)cc(=O)c56)oc4=O)c(=O)o3)cccc2o1,Activity,[1],inactive
same,Drug metabolism,[7],metabolite_notdetected
same,MIC,[5],2 µg/mL
same,Activity,[8],Active
same,Activity,[9],inactive
same,Activity,[2],inactive
same,Activity,[3],inactive
same,MIC,[10],0.5 µg/mL
same,MIC,[11],1 µg/mL
same,Drug metabolism,[12],metabolite_notdetected
same,Activity,[4],inactive
same,MBC,[13],4 µg/mL
same,MBC,[14],1 µg/mL
same,MBC,[15],8 µg/mL
O=C(O)c1cn(C2CC2)c2cc(N3CCNCC3)c(F)cc2c1=O [CIPROFLOXACIN],MIC,[5],1 µg/mL
same,MIC,[10],0.13 µg/mL
same,MIC,[11],0.5 µg/mL
same,MBC,[14],0.13 µg/mL
same,MBC,[15],4 µg/mL
CC(=O)c1c(O)cccc1Cc1cc(O)c(Cc2c(O)cc(Cc3cccc4oc(C)cc(=O)c34)oc2=O)c(=O)o1,Activity,[1],inactive
same,Activity,[2],inactive
same,Activity,[3],inactive
same,Activity,[4],inactive
Cc1cc(O)cc(=O)o1 [4-HYDROXY-6-METHYLPYRAN-2-ONE],Activity,[16],Active
same,Activity,[17],inactive
same,Drug metabolism,[18],metabolite_detected
same,Activity,[19],Active
CN[C@H](CC(C)C)C(=O)N[C@H]1C(=O)N[C@@H](CC(N)=O)C(=O)N[C@H]2C(=O)N[C@H]3C(=O)N[C@H](C(=O)N[C@H](C(=O)O)c4cc(O)cc(O)c4-c4cc3ccc4O)[C@H](O)c3ccc(c(Cl)c3)Oc3cc2cc(c3O[C@@H]2O[C@H](CO)[C@@H](O)[C@H](O)[C@H]2O[C@H]2C[C@](C)(N)[C@H](O)[C@H](C)O2)Oc2ccc(cc2Cl)[C@H]1O [VANCOMYCIN],Activity,[20],Active
same,Activity,[21],Active
same,MIC,[22],8 µg/mL
same,MIC,[10],0.5 µg/mL
same,MIC,[23],16 µg/mL
same,Activity,[24],Active
same,MIC,[25],16 µg/mL
same,Drug metabolism,[26],metabolite_detected
same,MBC,[13],4 µg/mL
same,MIC,[27],8 µg/mL
same,MBC,[14],0.5 µg/mL
same,MBC,[15],4 µg/mL
CC1(O)CC(=O)c2c(Cc3cc(O)c(Cc4c(O)cc(Cc5cccc6c5C(=O)CC(C)(O)O6)oc4=O)c(=O)o3)cccc2O1 (stereo not given),Activity,[1],inactive
same,Activity,[2],inactive
same,Activity,[3],inactive
same,Activity,[4],inactive
Cc1cc(=O)c2c(Cc3cc(O)c(C(C)c4c(O)cc(Cc5cccc6oc(C)cc(=O)c56)oc4=O)c(=O)o3)cccc2o1,Activity,[1],inactive
same,Activity,[2],inactive
same,Activity,[3],inactive
same,Activity,[4],inactive
CC(=O)CC(c1c(O)cc(Cc2cccc3oc(C)cc(=O)c23)oc1=O)c1c(O)cc(Cc2cccc3oc(C)cc(=O)c23)oc1=O,Activity,[1],inactive
same,Activity,[2],inactive
same,Activity,[3],inactive
same,Activity,[4],inactive
Cc1cc(=O)c2c(Cc3cc(O)c(Cc4c(O)cc(CC5(O)CC(=O)c6c(C)cc(O)cc6O5)oc4=O)c(=O)o3)cccc2o1 (stereo not given),Activity,[1],inactive
same,Activity,[2],inactive
same,Activity,[3],inactive
same,Activity,[4],inactive

# — ChEMBL document CHEMBL6092122, “Nonenzymatic Sequestering of Formaldehyde into the Antibiotic Methylene-Bridged Dimer Phaeochromycin F by Streptomyces sp. OUCMDZ-4982 as a Possible Multipronged Chemical Defense Mechanism” (J Nat Prod, 2024)
